According to paper doi:10.1101/2023.11.24.568596v1 (biorxiv, 2023):
Blank lines part the entries; values can stand above or below the molecule they belong to.

Columns and labels:
Details in all cases: binder
BMX = molecular target: T1, BMX (Homo sapiens, UniProt P51813)
T1 sequence (P51813 1-675): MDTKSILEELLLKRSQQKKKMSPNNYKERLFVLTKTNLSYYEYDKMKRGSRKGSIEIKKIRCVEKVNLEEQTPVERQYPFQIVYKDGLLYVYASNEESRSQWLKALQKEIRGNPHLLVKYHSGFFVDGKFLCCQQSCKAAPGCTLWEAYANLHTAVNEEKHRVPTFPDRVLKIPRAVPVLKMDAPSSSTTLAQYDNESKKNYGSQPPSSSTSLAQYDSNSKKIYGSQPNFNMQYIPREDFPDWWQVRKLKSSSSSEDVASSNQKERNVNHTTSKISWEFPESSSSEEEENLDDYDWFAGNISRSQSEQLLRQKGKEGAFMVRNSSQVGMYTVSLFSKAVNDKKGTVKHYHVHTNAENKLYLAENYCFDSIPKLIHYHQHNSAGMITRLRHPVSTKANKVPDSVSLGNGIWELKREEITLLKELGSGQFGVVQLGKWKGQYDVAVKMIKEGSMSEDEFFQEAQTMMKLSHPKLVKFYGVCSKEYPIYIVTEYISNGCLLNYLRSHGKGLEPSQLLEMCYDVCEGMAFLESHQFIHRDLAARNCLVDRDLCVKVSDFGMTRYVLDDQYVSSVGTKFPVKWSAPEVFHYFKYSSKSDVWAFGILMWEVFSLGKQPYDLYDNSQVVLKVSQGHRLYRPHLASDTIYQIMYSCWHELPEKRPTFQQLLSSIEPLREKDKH

NDR2 = NDR2 (Homo sapiens, UniProt Q9Y2H1)
NDR2, sequence (Q9Y2H1 whole entry): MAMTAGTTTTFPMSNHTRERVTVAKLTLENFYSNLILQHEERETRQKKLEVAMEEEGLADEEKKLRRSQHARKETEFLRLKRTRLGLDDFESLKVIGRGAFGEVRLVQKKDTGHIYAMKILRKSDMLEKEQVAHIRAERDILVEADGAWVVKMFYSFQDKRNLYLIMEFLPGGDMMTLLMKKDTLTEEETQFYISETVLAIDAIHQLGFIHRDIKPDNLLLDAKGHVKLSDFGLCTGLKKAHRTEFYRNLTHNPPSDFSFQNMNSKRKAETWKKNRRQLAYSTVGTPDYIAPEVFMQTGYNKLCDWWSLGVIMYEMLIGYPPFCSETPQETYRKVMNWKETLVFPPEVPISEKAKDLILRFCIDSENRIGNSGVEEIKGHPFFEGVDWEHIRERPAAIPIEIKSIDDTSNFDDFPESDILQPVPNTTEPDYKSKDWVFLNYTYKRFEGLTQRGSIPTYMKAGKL

DRAK1 = molecular target: T2, DRAK1 (Homo sapiens, UniProt Q9UEE5)
T2 sequence (Q9UEE5 1-414): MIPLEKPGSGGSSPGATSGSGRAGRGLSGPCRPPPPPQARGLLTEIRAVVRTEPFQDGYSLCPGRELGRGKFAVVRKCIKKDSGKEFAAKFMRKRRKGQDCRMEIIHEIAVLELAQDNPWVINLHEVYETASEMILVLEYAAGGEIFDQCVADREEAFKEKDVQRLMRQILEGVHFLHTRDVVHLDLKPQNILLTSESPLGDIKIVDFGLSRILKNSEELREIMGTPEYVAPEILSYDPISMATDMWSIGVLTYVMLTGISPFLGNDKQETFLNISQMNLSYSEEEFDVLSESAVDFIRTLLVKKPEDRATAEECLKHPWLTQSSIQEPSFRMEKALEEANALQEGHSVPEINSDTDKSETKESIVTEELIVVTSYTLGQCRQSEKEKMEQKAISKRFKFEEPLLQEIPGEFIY

EphB3 = molecular target: T3, EphB3 (Homo sapiens, UniProt P54753)
T3 sequence (P54753 1-998): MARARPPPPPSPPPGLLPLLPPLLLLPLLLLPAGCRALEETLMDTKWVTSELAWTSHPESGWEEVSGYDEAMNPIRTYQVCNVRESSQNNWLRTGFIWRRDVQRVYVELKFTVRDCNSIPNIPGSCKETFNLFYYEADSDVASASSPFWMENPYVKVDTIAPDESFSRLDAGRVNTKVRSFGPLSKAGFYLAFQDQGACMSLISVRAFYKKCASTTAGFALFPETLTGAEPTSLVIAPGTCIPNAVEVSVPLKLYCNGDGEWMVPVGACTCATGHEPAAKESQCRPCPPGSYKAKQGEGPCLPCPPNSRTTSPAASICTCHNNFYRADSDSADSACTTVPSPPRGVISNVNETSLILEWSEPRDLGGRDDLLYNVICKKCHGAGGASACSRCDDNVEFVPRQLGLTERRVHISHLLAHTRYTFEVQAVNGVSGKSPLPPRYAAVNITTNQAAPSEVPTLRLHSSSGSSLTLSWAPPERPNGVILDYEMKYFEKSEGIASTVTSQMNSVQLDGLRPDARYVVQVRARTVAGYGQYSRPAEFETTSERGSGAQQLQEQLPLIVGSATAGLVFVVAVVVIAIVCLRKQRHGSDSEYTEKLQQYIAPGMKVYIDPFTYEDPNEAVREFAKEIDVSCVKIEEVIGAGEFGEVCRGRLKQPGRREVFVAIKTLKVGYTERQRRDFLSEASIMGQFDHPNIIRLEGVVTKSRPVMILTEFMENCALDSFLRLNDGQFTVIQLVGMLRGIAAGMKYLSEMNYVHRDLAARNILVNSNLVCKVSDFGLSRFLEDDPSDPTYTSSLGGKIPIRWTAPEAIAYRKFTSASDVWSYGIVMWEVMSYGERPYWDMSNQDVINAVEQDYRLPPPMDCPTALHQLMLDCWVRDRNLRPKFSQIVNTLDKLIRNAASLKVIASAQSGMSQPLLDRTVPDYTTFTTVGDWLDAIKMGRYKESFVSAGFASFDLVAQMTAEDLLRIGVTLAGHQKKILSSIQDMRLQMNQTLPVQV

DAPK3 = DAPK3 (Homo sapiens, UniProt O43293)
DAPK3, sequence (O43293 whole entry): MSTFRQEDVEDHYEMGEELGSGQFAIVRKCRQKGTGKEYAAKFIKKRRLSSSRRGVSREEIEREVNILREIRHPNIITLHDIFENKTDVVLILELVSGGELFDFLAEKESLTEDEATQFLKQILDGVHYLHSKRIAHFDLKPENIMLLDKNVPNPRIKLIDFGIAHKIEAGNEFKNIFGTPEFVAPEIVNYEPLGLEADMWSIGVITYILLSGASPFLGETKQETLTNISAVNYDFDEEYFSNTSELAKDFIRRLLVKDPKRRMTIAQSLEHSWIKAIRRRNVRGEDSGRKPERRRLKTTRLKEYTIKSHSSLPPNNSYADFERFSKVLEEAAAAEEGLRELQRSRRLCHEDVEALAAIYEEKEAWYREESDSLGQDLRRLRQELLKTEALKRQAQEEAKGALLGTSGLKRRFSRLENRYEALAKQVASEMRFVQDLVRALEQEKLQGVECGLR

JNK2 = JNK2 (Homo sapiens, UniProt P45984)
JNK2, sequence (P45984 whole entry): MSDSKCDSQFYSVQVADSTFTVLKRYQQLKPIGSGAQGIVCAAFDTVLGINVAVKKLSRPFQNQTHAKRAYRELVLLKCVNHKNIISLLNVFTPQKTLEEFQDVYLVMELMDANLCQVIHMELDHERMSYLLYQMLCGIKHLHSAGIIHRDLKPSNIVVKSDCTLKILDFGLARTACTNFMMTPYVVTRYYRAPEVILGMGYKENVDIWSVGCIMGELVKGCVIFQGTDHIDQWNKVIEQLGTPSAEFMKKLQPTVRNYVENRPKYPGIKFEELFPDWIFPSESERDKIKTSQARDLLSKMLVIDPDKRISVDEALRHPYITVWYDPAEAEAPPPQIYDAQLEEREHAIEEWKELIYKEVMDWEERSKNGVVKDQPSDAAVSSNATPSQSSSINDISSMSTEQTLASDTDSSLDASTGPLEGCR

NEK2 = molecular target: T4, NEK2 (Homo sapiens, UniProt P51955)
T4 sequence (P51955 1-445): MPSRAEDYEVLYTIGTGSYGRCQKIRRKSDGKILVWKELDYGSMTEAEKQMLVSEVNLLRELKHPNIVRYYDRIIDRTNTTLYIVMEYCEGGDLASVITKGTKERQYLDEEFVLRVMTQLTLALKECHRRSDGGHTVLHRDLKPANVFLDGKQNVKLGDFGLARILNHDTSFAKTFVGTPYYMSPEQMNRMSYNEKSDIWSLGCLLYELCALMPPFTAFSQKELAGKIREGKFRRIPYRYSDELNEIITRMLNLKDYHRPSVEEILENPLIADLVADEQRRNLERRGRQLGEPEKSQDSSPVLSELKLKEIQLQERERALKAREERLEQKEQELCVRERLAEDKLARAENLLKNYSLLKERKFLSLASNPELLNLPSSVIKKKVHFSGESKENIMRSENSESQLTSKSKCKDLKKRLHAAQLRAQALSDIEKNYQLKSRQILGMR

ΔTm 22 (BMX): 4.1 °C
ΔTm 22 (NDR2): 5.1 °C
ΔTm 22 (DRAK1): -1.3 °C
ΔTm 22 (EphB3): 2.6 °C
ΔTm 22 (DAPK3): 2.4 °C
ΔTm 22 (JNK2): 0.3 °C
ΔTm 22 (NEK2): 6.6 °C
SMILES: CNc1ncc2cc(-c3ccc(-c4cccc(C)n4)cc3Cl)c(=O)n(CCC3CCNCC3)c2n1 [compound 22, 6-(2-Chloro-4-(6-methylpyridin-2-yl)phenyl)-2-(methylamino)-8-(2-(piperidin-4-yl)ethyl)pyrido[2,3-d]pyrimidin-7(8H)-one]

ΔTm MR26 (26) (BMX): 2.4 °C
ΔTm MR26 (26) (NDR2): 5.2 °C
ΔTm MR26 (26) (DRAK1): 0.2 °C
ΔTm MR26 (26) (EphB3): 2.4 °C
ΔTm MR26 (26) (DAPK3): 0.0 °C
ΔTm MR26 (26) (JNK2): 0.0 °C
ΔTm MR26 (26) (NEK2): 5.9 °C
SMILES: Cc1cccc(-c2ccc(-c3cc4cnc(NCCCN5CCOCC5)nc4n(CCCCN)c3=O)c(Cl)c2)n1 [compound 26, MR26]

More lines, now with the values behind:

SMILES: CNc1ncc2cc(-c3ccc(-c4cccc(C)n4)cc3Cl)c(=O)n(CCCCN)c2n1 [compound 20, MRLW5]
ΔTm MRLW5 (20) (BMX): 3.1 °C
ΔTm MRLW5 (20) (NDR2): 4.6 °C
ΔTm MRLW5 (20) (DRAK1): -0.5 °C
ΔTm MRLW5 (20) (EphB3): 2.5 °C
ΔTm MRLW5 (20) (DAPK3): 1.4 °C
ΔTm MRLW5 (20) (JNK2): 0.3 °C
ΔTm MRLW5 (20) (NEK2): 4.6 °C

SMILES: CNc1ncc2cc(-c3ccc(-c4cccc(C)n4)cc3Cl)c(=O)n(C[C@H]3CC[C@H](N)CC3)c2n1 [compound 23, 23]
ΔTm 23 (BMX): 3.4 °C
ΔTm 23 (NDR2): 3.5 °C
ΔTm 23 (DRAK1): -1.0 °C
ΔTm 23 (EphB3): 3.6 °C
ΔTm 23 (DAPK3): 2.8 °C
ΔTm 23 (JNK2): 1.3 °C
ΔTm 23 (NEK2): 6.9 °C

SMILES: Cc1cccc(-c2ccc(-c3cc4cnc(NC(CO)CO)nc4n(CCCCN)c3=O)c(Cl)c2)n1 [compound 24, 8-(4-Aminobutyl)-6-(2-chloro-4-(6-methylpyridin-2-yl)phenyl)-2-((1,3-dihydroxypropan-2-yl)amino)pyrido[2,3-d]pyrimidin-7(8H)-one]
ΔTm MR24 (24) (BMX): 0.6 °C
ΔTm MR24 (24) (NDR2): 2.6 °C
ΔTm MR24 (24) (DRAK1): 0.0 °C
ΔTm MR24 (24) (EphB3): 0.2 °C
ΔTm MR24 (24) (DAPK3): 0.2 °C
ΔTm MR24 (24) (JNK2): 0.4 °C
ΔTm MR24 (24) (NEK2): 5.6 °C

SMILES: Cc1cccc(-c2ccc(-c3cc4cnc(NCCCc5ccc(N)cc5)nc4n(CCCCN)c3=O)c(Cl)c2)n1 [compound 25, 8-(4-Aminobutyl)-2-((3-(4-aminophenyl)propyl)amino)-6-(2-chloro-4-(6-methylpyridin-2-yl)phenyl)pyrido[2,3-d]pyrimidin-7(8H)-one]
ΔTm 25 (BMX): 3.1 °C
ΔTm 25 (NDR2): 6.7 °C
ΔTm 25 (DRAK1): 0.9 °C
ΔTm 25 (EphB3): 2.8 °C
ΔTm 25 (DAPK3): 0.8 °C
ΔTm 25 (JNK2): 2.6 °C
ΔTm 25 (NEK2): 8.8 °C
